In assay [1] the target is Recombinant human Cbl-b (aa 36-427) (Homo sapiens, UniProt Q13191). Kind of assay: Cbl-b Biochemical Assay (TR-FRET). The following applies: read-out: TR-FRET hCbl-b IC50. In general terms: In TR-FRET formats the signal depends on donor and acceptor labels being close together.
Assay [2] has as its system Jurkat (clone E6-1) cells with NFAT luciferase reporter. Kind of assay: Jurkat reporter assay (NFAT Luciferase). It is filed as cell-based. The following applies: Homo sapiens; Jurkat NFAT luciferase reporter cells, anti-CD3 stimulation, 6 hr; read-out: Jurkat NFAT EC50. A general note: In a reporter assay the amount or activity of a reporter protein is the signal.
For assay [3], the target named is T1, Recombinant human c-Cbl (aa 47-435) (Homo sapiens, UniProt P22681).
T1 sequence (P22681 47-435): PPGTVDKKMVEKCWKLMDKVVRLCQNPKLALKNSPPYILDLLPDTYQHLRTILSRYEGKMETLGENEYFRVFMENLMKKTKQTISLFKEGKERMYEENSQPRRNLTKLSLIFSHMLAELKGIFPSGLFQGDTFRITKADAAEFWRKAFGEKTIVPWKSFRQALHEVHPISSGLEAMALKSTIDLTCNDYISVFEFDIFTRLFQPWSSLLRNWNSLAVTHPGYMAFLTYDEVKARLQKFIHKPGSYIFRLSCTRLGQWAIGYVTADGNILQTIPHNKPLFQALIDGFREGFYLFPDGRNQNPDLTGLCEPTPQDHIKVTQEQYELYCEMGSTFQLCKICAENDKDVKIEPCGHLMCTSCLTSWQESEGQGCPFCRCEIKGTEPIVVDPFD
Kind of assay: c-Cbl Biochemical Assay (TR-FRET). The settings on record: hc-Cbl Biochemical Assay (TR-FRET); read-out: TR-FRET hcCbl IC50.

A value given as a limit tells only on which side of the number the result lay.

The record followed here is US20250163038A1, “CBL-B MODULATORS AND USES THEREOF” (Nimbus Clio, Inc., priority 2021, published 2025).

Chain of Recombinant human Cbl-b (aa 36-427) (Q13191 36-427): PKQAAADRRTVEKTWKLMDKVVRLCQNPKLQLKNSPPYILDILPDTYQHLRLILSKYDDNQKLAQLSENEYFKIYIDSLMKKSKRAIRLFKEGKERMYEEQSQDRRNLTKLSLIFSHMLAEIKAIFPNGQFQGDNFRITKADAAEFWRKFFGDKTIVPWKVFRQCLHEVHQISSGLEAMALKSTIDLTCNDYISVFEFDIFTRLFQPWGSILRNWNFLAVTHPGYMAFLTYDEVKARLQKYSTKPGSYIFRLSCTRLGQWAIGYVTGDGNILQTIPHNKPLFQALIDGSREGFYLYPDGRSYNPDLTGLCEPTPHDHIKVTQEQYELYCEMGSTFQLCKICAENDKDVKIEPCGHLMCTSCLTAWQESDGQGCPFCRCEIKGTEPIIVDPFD

With `Cn1cnnc1-c1cc(F)ccc1-c1cccc(-c2nc3cc(CN4CCCC[C@@H]4CO)cc(C(F)(F)F)c3o2)c1` [IV-2, (R)-(1-((2-(4′-Fluoro-2′-(4-methyl-4H-1,2,4-triazol-3-yl)-[1,1′-biphenyl]-3-yl)-7-(trifluoromethyl)benzo[d]oxazol-5-yl)methyl)piperidin-2-yl)methanol], the figures for the concentration for half-maximal inhibition (IC50) in assay [1] and in assay [3] were less than 200 nM and 200 to 1000 nM, respectively. For the same compound, the concentration for a half-maximal effect (EC50) (as a rule, the concentration needed to bring the measured effect to its halfway point) in assay [2] fell in the range of 200 to 1000 nM.
`Cn1cnnc1-c1cc(F)ccc1-c1cccc(-c2nc3cc(CNCC4(O)CCC4)c(F)c(F)c3o2)c1` [IW-1, 1-((((6,7-Difluoro-2-(4′-fluoro-2′-(4-methyl-4H-1,2,4-triazol-3-yl)-[1,1′-biphenyl]-3-yl)benzo[d]oxazol-5-yl)methyl)amino)methyl)cyclobutan-1-ol]: the IC50 in assay [1] and in assay [3] was less than 200 nM throughout. The half-maximal effective concentration (EC50) in assay [2] was less than 200 nM.
`Cn1cnnc1-c1cc(F)ccc1-c1cccc(-c2nc3cc(CNCC4CCC4)c(F)c(F)c3o2)c1` [IX-1, 1-Cyclobutyl-N-((6,7-difluoro-2-(4′-fluoro-2′-(4-methyl-4H-1,2,4-triazol-3-yl)-[1,1′-biphenyl]-3-yl)benzo[d]oxazol-5-yl)methyl)methanamine]: the 50% inhibitory concentration (IC50) in assay [1] and in assay [3] was less than 200 nM each time. Further, in assay [2], the 50% effective concentration (EC50) was less than 200 nM.
With `COCCNCc1cc2nc(-c3cccc(-c4ccc(F)cc4-c4nncn4C)c3)oc2c(F)c1F` [IY-1, N-((6,7-Difluoro-2-(4′-fluoro-2′-(4-methyl-4H-1,2,4-triazol-3-yl)-[1,1′-biphenyl]-3-yl)benzo[d]oxazol-5-yl)methyl)-2-methoxyethan-1-amine], the half-inhibitory concentration (IC50) in assay [1] and in assay [3] was less than 200 nM each time. In addition, the concentration for a half-maximal effect (EC50) in assay [2] was less than 200 nM.
`Cn1cnnc1-c1cc(F)ccc1-c1cccc(-c2nc3cc(CNCC4(O)CCC4)cc(F)c3o2)c1` [IZ-1, 1-((((7-Fluoro-2-(4′-fluoro-2′-(4-methyl-4H-1,2,4-triazol-3-yl)-[1,1′-biphenyl]-3-yl)benzo[d]oxazol-5-yl)methyl)amino)methyl)cyclobutan-1-ol]: the IC50 in assay [1] and in assay [3] was less than 200 nM throughout. Moreover, the half-maximal effective concentration (EC50) in assay [2] was less than 200 nM.
As for `Cn1cnnc1-c1cc(F)ccc1-c1cccc(-c2nc3cc(CN4CCCC[C@H]4CO)cc(C(F)(F)F)c3o2)c1` [JB-2, (S)-(1-((2-(4′-Fluoro-2′-(4-methyl-4H-1,2,4-triazol-3-yl)-[1,1′-biphenyl]-3-yl)-7-(trifluoromethyl)benzo[d]oxazol-5-yl)methyl)piperidin-2-yl)methanol], the IC50 – broadly, the concentration at which inhibition is half-maximal – is less than 200 nM in assay [1] and 1000 to 10000 nM in assay [3]. Also, the EC50 in assay [2] was 1000 to 10000 nM.
As for `COCCNCc1cc(C)c2oc(-c3cccc(-c4ccc(F)cc4-c4nncn4C)c3)nc2c1F` [JC-1, N-((4-Fluoro-2-(4′-fluoro-2′-(4-methyl-4H-1,2,4-triazol-3-yl)-[1,1′-biphenyl]-3-yl)-7-methylbenzo[d]oxazol-5-yl)methyl)-2-methoxyethan-1-amine], the figures for the IC50 in assay [1] and in assay [3] were 200 to 1000 nM and 1000 to 10000 nM, respectively. In addition, in assay [2], the concentration giving a half-maximal response (EC50) was 1000 to 10000 nM.
As for `Cn1cnnc1-c1cc(F)ccc1-c1cccc(-c2nc3cc(CNCC(C)(C)O)c(F)c(F)c3o2)c1` [JD-1, 1-(((6,7-Difluoro-2-(4′-fluoro-2′-(4-methyl-4H-1,2,4-triazol-3-yl)-[1,1′-biphenyl]-3-yl)benzo[d]oxazol-5-yl)methyl)amino)-2-methylpropan-2-ol], the 50% inhibitory concentration (IC50) in assay [1] and in assay [3] was less than 200 nM throughout. Also, the EC50 in assay [2] is less than 200 nM.
On to `Cn1cnnc1-c1cc(F)ccc1-c1cccc(-c2nc3cc(CNCC4COC4)c(F)c(F)c3o2)c1` [JE-1, 1-(6,7-Difluoro-2-(4′-fluoro-2′-(4-methyl-4H-1,2,4-triazol-3-yl)-[1,1′-biphenyl]-3-yl)benzo[d]oxazol-5-yl)-N-(oxetan-3-ylmethyl)methanamine], for which the values for the IC50 in assay [1] and in assay [3] were less than 200 nM and 200 to 1000 nM, respectively. Besides, the 50% effective concentration (EC50) in assay [2] was less than 200 nM.
